Entries after “also recorded” stand apart in the source; their conditions may differ.
What was measured:
[1] = system: HIV-1 strain IIIB; test: HIV-1 IIIB infection of CD4+ PBMC, p24 antigen ELISA; format: cell-based; conditions: CD4+ PBMC, IIIB (X4), peptide 10-20 μg/ml
Description: FIG. 5A-C. Anti-HIV-1 activity of retrocyclin. Two strains of HIV-1 and two types of human target cells were used. The IIIB strain is T-cell tropic (X4) and utilizes the CXCR4 co-receptor for entry; the JR-CSF strain is M-tropic (R5) and uses CCR5 for entry. PBMC signifies CD4^+-selected peripheral blood mononuclear cells. […] (A) Two concentrations of retrocyclin (2 μg/ml, 20 μg/ml), 20 μg/ml of the Rhesus circular defensin “RTD-1”, and 20 μg/ml of a horseshoe crab-derived peptide “T140”, reported to only prevent X4 infections, were tested in antiviral assays of against strain IIIB in H9 cells (n=2-6 per peptide; error bars indicate SEM). (B) To confirm our results with primary human cells, similar assays were performed utilizing IIIB virus and CD4^+ PBMC or (C) JR-CSF virus and CD4^+ PBMC. […] Average of duplicate experiments are reported for studies with PBMCs. Assay sensitivity=10 pg/ml.
Either HIV-1-permissive H9 cells were used as targets, or primary CD4^+ lymphocytes from HIV-1-seronegative donors generated from freshly purified peripheral blood mononuclear cells (PBMC) stimulated with a CD3-CD8 bispecific monoclonal antibody. […] These cells were maintained in RPMI containing 10% FCS supplemented with 2 mM glutamine, 100 U of penicillin/ml, 10 μg of streptomycin/ml, and 50 U of interleukin 2/ml (R10-50 media).
Examining the effect of adding retrocyclin at various times pre- and post-HIV-1 infection. […] Primary CD4^+ PBMC were incubated with HIV-IIIB (FIG. 6) or HIV-JR-CSF for 3 hours in the presence or absence of 20 μg/ml retrocyclin. The cells were subsequently washed in media, and incubated an additional 9 days. Retrocyclin (20 μg/ml) was added back to some of the cultures at time points specified in FIG. 6 and infection was monitored by p24 ELISA as previously described. […]

[2] = system: HIV-1 strain JR-CSF; test: HIV-1 JR-CSF infection of CD4+ PBMC, p24 antigen ELISA; format: cell-based; conditions: JR-CSF (R5), peptide 10-20 μg/ml
Description: FIG. 5A-C. Anti-HIV-1 activity of retrocyclin. Two strains of HIV-1 and two types of human target cells were used. The IIIB strain is T-cell tropic (X4) and utilizes the CXCR4 co-receptor for entry; the JR-CSF strain is M-tropic (R5) and uses CCR5 for entry. PBMC signifies CD4^+-selected peripheral blood mononuclear cells. […] (A) Two concentrations of retrocyclin (2 μg/ml, 20 μg/ml), 20 μg/ml of the Rhesus circular defensin “RTD-1”, and 20 μg/ml of a horseshoe crab-derived peptide “T140”, reported to only prevent X4 infections, were tested in antiviral assays of against strain IIIB in H9 cells (n=2-6 per peptide; error bars indicate SEM). (B) To confirm our results with primary human cells, similar assays were performed utilizing IIIB virus and CD4^+ PBMC or (C) JR-CSF virus and CD4^+ PBMC. Peptides were not cytotoxic at indicated concentrations, measured by trypan blue exclusion. Average of duplicate experiments are reported for studies with PBMCs. Assay sensitivity=10 pg/ml.
(§1) Either HIV-1-permissive H9 cells were used as targets, or primary CD4^+ lymphocytes from HIV-1-seronegative donors generated from freshly purified peripheral blood mononuclear cells (PBMC) stimulated with a CD3-CD8 bispecific monoclonal antibody. After approximately 7 days, when 98% of these cells co-expressed CD3 and CD4, they were infected with HIV-1 with or without retrocyclin or other test peptide. These cells were maintained in RPMI containing 10% FCS supplemented with 2 mM glutamine, 100 U of penicillin/ml, 10 μg of streptomycin/ml, and 50 U of interleukin 2/ml (R10-50 media).
The p24 assay results shown in FIG. 9 are on a logarithmic scale. A horizontal reference line that passes through 100 on the ordinate scale corresponds to […] of p24 antigen. Results from 3 experiments (each performed with PBMC from a different donor) are shown.

[3] = system: HSV-2; test: HSV inactivation microplate assay on ME-180 cells (MTT); format: cell-based; conditions: 2-50 μg/ml, 2 hrs with virus, 72 hrs culture
Description: FIG. 14. Inactivation of HSV-1 and HSV-2 by retrocyclin and RC-101. Retrocyclin (left panel) and RC-101 (right panel) at the indicated concentrations were incubated with herpes simplex virus, type 1 (HSV-1) or HSV-2 for 2 hrs and then added to ME-180 cell monolayers. Cells were incubated at 37° C. for 72 hrs, and cytotoxicity was measured with an MTT kit.
Some retrocyclins are slightly active against herpes simplex virus (HSV). To determine if the activity of retrocyclin against HIV-1 was specific or representative of a more global antiviral effect, it was tested its ability to prevent HSV infection in vitro. A quantitative microplate assay was used to screen retrocyclin and retrocyclin-congeners for their ability to inactivate HSV type 1 (HSV-1) and HSV-2. The assay utilized small amounts of peptide and simultaneously evaluated for peptide-induced cytotoxicity. In brief, final peptide concentrations of 2-50 μg/ml were incubated with virus stocks for 2 hrs and added directly to ME-180 human cervical carcinoma cells. Cultures were incubated at 37° C. for 72 hrs and cytotoxicity was measured using a 3-(4,5-dimethylthiazon-2-yl)-2,5-diphenyltetrazolium bromide (MTT) cell proliferation kit (Boehringer-Mannheim, Germany). Calculations to assess antiviral activity and compute “percent protection” are delineated in (90).

[4] = system: primary HIV-1 isolates; conditions: previous assays; included as negative control
From the text: Viral isolates. Primary HIV-1 isolates were obtained from Institutional Review Board-approved Centers for Disease Control and Prevention (CDC) Studies or from the National Institutes of Health Research and Reference Reagent Program and World Health Organization collaborative network. Detailed characteristics of the CDC isolates, including subtype determination based on the envelope region, and co-receptor usage using GHOST cell lines have been described elsewhere. For viruses obtained from the NIH Research and Reference Reagent Program, the reported subtype and co-receptor data were used as supplied. Viral stocks were generated by infecting CD8-depleted normal human peripheral blood mononuclear cells. After filtration through 0.22-μm filters, aliquots of the stocks were stored at −70° C. until used.
Reporter gene-based viral replication assay. JC53-BL cells, an HIV-1 reporter cell line derived from HeLa cells that expresses high levels of CD4 and the HIV co-receptors CXCR4 and CCR5, were a gift of Tranzyme Inc. (Birmingham, Ala.). The JC53-BL cells contain cassettes for luciferase and β-galactosidase, each driven by the HIV-1 LTR. HIV infection (tat production) can be detected either by measuring luciferase activity or by counting blue foci after staining the cells with “X-Gal” (5-Bromo-4-chloro-3-indolyl β-D-galactopyranoside), as described elsewhere in detail. The JC53-BL cells were maintained in Dulbecco's modified Eagle medium supplemented with 10% fetal calf serum. (HyClone, Logan, Utah), 2 mM glutamine (Gibco), 100 units per ml penicillin G and 100 μg/ml streptomycin (GIBCO™, Invitrogen Corp., San Diego, Calif.). Viral titers were determined by adding serial dilutions of the virus stocks, in triplicate, to wells containing 20,000 JC53-BL cells, after supplementing the above medium with 40 μg/ml DEAE (diethylaminoethyl)-dextran. After a 48 hour incubation at 37° C. in 5% CO2, the cells were fixed and stained for β galactosidase, and the blue foci were counted with a light microscope. Multiplicity of infection (MOI) values were taken from the infectious unit data.
In vitro infections were carried out in the presence or absence of θ-defensin peptides. Briefly, JC53-BL cells were harvested from T-150 flasks approximately 18 hours prior to starting the assay with 0.1 mM EDTA in 0.017 M PBS, pH 7.4. The cells were washed and transferred to sterile white 96-well plates (Thermo Labsystems, Franklin, Mass.) at a density of 20,000 cells in 50 μl of medium. […] After this 3-hour preincubation with peptides, viruses were added in media containing 40 μg/ml DEAE-dextran. The final volume was 200 μl per well, and the multiplicity of infection (viruses/cell) ranged from 0.009 to 0.65. After the plates had incubated at 37° C. in 5% CO2 for 48 hours, luciferase activity was measured with the Steady-Glo Luciferase Assay System (Promega, Madison, Wis.), using the manufacturer's lysis protocol. Relative light intensity was measured with a Tecan luminometer running Magellan software (Tecan, Research Triangle Park, N.C.) and reported as relative light units (RLU). Each plate contained three sets of quadruplicate controls: media-only (background), virus-only (peptide-free), and recombinant luciferase. Samples were run in duplicate and the % inhibition was calculated from the mean values using the formula: % Inhibition=1−(average RLU peptide+virus wells/average RLU virus only wells)×100.
Fifty-percent inhibitory concentration values (IC50) were calculated using the predicted exponential growth function in Microsoft Excel, which uses known x-y values to estimate a given x value (in this case concentration of peptide) that would correspond to a given y value (in this case IC50). Statistical comparisons were by paired t-tests, unless otherwise noted.

[5] = system: HIV-1 strain IIIB; test: HIV-1 IIIB infection of H9 cells, p24 antigen ELISA; format: cell-based; conditions: H9 cells, IIIB (X4), peptide 10-20 μg/ml
Description: FIG. 1. Circular minidefensins reduce HIV-1 infection of H9 cells. HIV-I strain IIIB (MOI=10^−2) was incubated with 2.5×10^5 H9 cells in the presence or absence of 20 μg/ml RTD-1, RTD-2 or RTD-3. p24 antigen release was monitored by ELISA on days 3, 6, and 9. Assay sensitivity=10 pg/ml.
Immortalized CD4^+ H9 cells, which are permissive for infection with this strain, were maintained in RPMI supplemented with 10% heat-inactivated fetal calf serum (FCS), 10 mM HEPES, 2 mM glutamine, 100 U of penicillin/ml, and 10 μg of streptomycin/ml (R10 media). Cells (2.5×10^5/100 μl) were incubated with virus (multiplicity of infection (MOI)=10^−2) in the presence or absence of 20 μg/ml RTD-1, RTD-2 or RTD-3 for 3 hrs at 37° C./5% CO2. The cells were washed in R10 media, seeded in 48-well tissue culture plates in 1 ml R10 media, and incubated at 37° C./5% CO2 for 9 days. Aliquots of cell supernatant were removed at the specified time points and analyzed by a sensitive ELISA (DuPont NEN) that quantitates p24 antigen of HIV-1. The three circular rhesus minidefensins were similarly active, inhibiting HIV-1 by 100-1000 fold by 9 days post-inoculation (note the logarithmic scale).
as §1
Mature retrocyclin was prepared by a three-step process.

Molecule | inhibition of HIV-1 replication (p24) [1] | inhibition of HIV-1 replication (p24) [2] | protection against HSV-2 [3] | anti-HIV activity [4] | inhibition of HIV-1 replication (p24) [5]
I11Y-Retrocyclin (cyclo(GICRCICGRGYCRCICGR); disulfide (positions not given here); ring closure inferred; not fully specified (bridges)) [RC-105] | either inactive or only modestly active |  |  |  | 
R9Y-Retrocyclin [RC-107] | lack of efficacy | lack of efficacy |  |  | 
I15Y-Retrocyclin (cyclo(GICRCICGRGICRCYCGR); disulfide (positions not given here); ring closure inferred; not fully specified (bridges)) [RC-103] | either inactive or only modestly active; also recorded: relatively ineffective | considerable ability to protect cells; also recorded: substantial activity | less antiviral than retrocyclin |  | 
I2Y-Retrocyclin (cyclo(GYCRCICGRGICRCICGR); disulfide (positions not given here); ring closure inferred; not fully specified (bridges)) [RC-104, cyclic …] | relatively ineffective | considerable ability to protect cells; also recorded: substantial activity |  |  | 
R13Y-Retrocyclin (cyclo(GICICICGRGICYCICGR); disulfide (positions not given here); ring closure inferred; not fully specified (bridges)) [RC-108] | either inactive or only modestly active; also recorded: lack of efficacy | lack of efficacy |  |  | 
R4Y-Retrocyclin [RC-106] | either inactive or only modestly active; also recorded: lack of efficacy | lack of efficacy |  | little or no anti-HIV activity | 
RTD-2: rhesus circular minidefensin, homodimer of two identical nonapeptide elements (SEQ ID NO:17) (peptide, listed as Macaca mulatta, cyclic homodimer of two nonapeptides; SIGNAL (1)...(20)) MRTFALLTAMLLLVALHAQAEARQARADEAAAQQQPGADDQGMAHSFTRPENAALPLSESARGLRCLCRRGVCQLL |  |  |  |  | protective to a lesser extent than retrocyclin
RTD-3: rhesus circular minidefensin, homodimer of two identical nonapeptide elements (SEQ ID NO:15) (peptide, listed as Macaca mulatta, cyclic homodimer of two nonapeptides; SIGNAL (1)...(20)) MRTFALLTAMLLLVALHAQAEARQARADEAAAQQQPGTDDQGMAHSFTWPENAALPLSESAKGLRCICTRGFCRLL |  |  |  |  | protective to a lesser extent than retrocyclin

Source: patent US7314858B2, “Retrocyclins: antiviral and antimicrobial peptides” (priority 2001, dated 2008)
